Source: patent US8779197B2, “Aryl amides useful as inhibitors of voltage-gated sodium channels” (Vertex Pharmaceuticals Incorporated, priority 2007, dated 2014)
Like-named read-outs stand apart in the source and are kept apart here.

What was measured:
[1] = biological target: NaV1.8 (Homo sapiens, UniProt Q9Y5Y9); assay: Activity against NaV 1.8 channel (optical membrane potential assay); assay type: cell-based
Description: (§1) Compounds of the invention are useful as antagonists of voltage-gated sodium ion channels. Antagonist properties of test compounds were assessed as follows. Cells expressing the NaV of interest were placed into microtiter plates. After an incubation period, the cells were stained with fluorescent dyes sensitive to the transmembrane potential. The test compounds were added to the microtiter plate. The cells were stimulated with either a chemical or electrical means to evoke a NaV dependent membrane potential change from unblocked channels, which was detected and measured with trans-membrane potential-sensitive dyes. Antagonists were detected as a decreased membrane potential response to the stimulus. The optical membrane potential assay utilized voltage-sensitive FRET sensors described by Gonzalez and Tsien (See, Gonzalez, J. E. and R. Y. Tsien (1995) “Voltage sensing by fluorescence resonance energy transfer in single cells” Biophys J 69(4): 1272-80, and Gonzalez, J. E. and R. Y. Tsien (1997) “Improved indicators of cell membrane potential that use fluorescence resonance energy transfer” Chem Biol 4(4): 269-77) in combination with instrumentation for measuring fluorescence changes such as the Voltage/Ion Probe Reader (VIPR®) (See, Gonzalez, J. E., K. Oades, et al. (1999) “Cell-based assays and instrumentation for screening ion-channel targets” Drug Discov Today 4(9): 431-439).
(§2) C) VIPR® Optical Membrane Potential Assay Method with Electrical Stimulation
(§3) The following is an example of how NaV1.3 inhibition activity is measured using the optical membrane potential method#2. Other subtypes are performed in an analogous mode in a cell line expressing the NaV of interest.
(§4) 10 mM CC2-DMPE is vortexed with an equivalent volume of 10% pluronic, followed by vortexing in required amount of HBSS containing 10 mM HEPES. Each cell plate will require 5 mL of 2×CC2-DMPE. 50 µL of 2×CC2-DMPE is to wells containing washed cells, resulting in a 10 μM final staining concentration. The cells are stained for 30 minutes in the dark at RT.
(§5) The required amount of 10 mM DISBAC2(3) is added to a 50 ml conical tube and mixed with 1 μL 10% pluronic for each mL of solution to be made and vortexed together. Then HBSS/HEPES is added to make up 2× solution. Finally, the ABSC1 is added.
(§6) The 2×DiSBAC2(3) solution can be used to solvate compound plates. Note that compound plates are made at 2× drug concentration. Wash stained plate again, leaving residual volume of 50 μL. Add 50 uL/well of the 2×DiSBAC2(3) w/ABSC1. Stain for 30 minutes in the dark at RT.
(§7) The electrical stimulation instrument and methods of use are described in ION Channel Assay Methods PCT/US01/21652, herein incorporated by reference. The instrument comprises a microtiter plate handler, an optical system for exciting the coumarin dye while simultaneously recording the coumarin and oxonol emissions, a waveform generator, a current- or voltage-controlled amplifier, and a device for inserting electrodes in well. Under integrated computer control, this instrument passes user-programmed electrical stimulus protocols to cells within the wells of the microtiter plate.
(§8) Assay Protocol • 1. Insert or use electrodes into each well to be assayed. • 2. Use the current-controlled amplifier to deliver stimulation wave pulses for 3 s. Two seconds of pre-stimulus recording are performed to obtain the un-stimulated intensities. Five seconds of post-stimulation recording are performed to examine the relaxation to the resting state.
(§9) Data are analyzed and reported as normalized ratios of background-subtracted emission intensities measured in the 460 nm and 580 nm channels. Background intensities are then subtracted from each assay channel. Background intensities are obtained by measuring the emission intensities during the same time periods from identically treated assay wells in which there are no cells. The response as a function of time is then reported as the ratios obtained using the following formula: […]

[2] = biological target: T1, NaV1.3 (Homo sapiens, UniProt Q9NY46); assay: Activity against NaV 1.3 channel (optical membrane potential assay); assay type: cell-based; parameters: expressed in transfected cells; host or cells: HEK293
Description: as §1, §2, §3
Target sequence in this assay (Q9NY46 whole entry): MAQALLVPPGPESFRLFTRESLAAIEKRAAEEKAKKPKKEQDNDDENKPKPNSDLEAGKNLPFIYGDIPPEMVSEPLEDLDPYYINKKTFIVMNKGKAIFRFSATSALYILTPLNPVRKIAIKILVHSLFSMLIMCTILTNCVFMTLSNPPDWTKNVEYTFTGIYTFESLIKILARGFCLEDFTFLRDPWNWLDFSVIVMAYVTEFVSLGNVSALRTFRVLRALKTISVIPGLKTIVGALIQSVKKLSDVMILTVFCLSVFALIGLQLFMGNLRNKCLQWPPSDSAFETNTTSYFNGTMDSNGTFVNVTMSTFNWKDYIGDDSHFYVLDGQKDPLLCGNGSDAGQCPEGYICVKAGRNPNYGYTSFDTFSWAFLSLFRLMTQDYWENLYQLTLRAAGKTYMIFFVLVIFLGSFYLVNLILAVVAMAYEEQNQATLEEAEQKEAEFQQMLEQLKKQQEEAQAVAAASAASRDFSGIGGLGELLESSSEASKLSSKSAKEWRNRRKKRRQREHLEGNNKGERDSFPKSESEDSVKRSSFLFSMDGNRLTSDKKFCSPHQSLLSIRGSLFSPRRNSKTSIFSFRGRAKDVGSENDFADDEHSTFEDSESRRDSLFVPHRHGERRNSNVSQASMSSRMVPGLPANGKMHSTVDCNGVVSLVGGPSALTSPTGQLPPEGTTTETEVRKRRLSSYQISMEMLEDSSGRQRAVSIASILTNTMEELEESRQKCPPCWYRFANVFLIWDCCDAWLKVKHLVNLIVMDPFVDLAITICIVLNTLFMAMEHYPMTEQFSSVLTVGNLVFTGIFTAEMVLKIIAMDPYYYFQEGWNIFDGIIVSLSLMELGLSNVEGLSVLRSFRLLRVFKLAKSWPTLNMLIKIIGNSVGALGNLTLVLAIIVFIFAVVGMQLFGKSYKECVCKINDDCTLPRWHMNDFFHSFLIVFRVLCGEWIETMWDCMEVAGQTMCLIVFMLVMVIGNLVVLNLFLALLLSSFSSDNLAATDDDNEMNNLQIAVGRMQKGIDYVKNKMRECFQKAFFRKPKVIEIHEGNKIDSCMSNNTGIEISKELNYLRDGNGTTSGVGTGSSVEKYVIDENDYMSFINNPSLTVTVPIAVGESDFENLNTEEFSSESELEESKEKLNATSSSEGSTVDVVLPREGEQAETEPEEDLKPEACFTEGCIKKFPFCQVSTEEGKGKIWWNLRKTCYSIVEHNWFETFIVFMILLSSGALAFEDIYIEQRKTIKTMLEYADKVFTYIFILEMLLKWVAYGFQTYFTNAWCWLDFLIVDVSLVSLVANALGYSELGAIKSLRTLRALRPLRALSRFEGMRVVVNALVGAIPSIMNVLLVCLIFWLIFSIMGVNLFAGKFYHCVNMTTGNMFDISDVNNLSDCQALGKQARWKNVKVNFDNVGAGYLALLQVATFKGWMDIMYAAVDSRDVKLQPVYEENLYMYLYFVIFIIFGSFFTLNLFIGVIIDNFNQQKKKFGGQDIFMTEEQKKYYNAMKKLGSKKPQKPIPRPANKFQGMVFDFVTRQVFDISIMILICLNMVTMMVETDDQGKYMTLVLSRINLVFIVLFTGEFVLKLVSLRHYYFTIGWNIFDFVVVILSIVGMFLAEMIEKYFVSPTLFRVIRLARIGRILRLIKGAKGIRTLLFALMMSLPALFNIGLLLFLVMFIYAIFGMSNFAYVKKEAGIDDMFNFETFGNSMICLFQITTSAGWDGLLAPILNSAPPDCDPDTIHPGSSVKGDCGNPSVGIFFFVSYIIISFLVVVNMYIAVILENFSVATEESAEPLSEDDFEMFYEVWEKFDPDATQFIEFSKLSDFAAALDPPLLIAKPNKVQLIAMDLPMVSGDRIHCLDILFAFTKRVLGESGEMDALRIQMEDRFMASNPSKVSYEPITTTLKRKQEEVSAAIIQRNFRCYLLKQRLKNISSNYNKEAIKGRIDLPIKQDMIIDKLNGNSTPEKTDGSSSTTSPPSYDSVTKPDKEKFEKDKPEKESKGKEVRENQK
HEK293 cells stably expressing NaV1.3 are plated into 96-well microtiter plates. After an appropriate incubation period, the cells are stained with the voltage sensitive dyes CC2-DMPE/DiSBAC2(3) as follows.
as §4, §5, §6, §7, §8
Data are analyzed and reported as normalized ratios of background-subtracted emission intensities measured in the 460 nm and 580 nm channels. Background intensities are then subtracted from each assay channel. […]

[3] = biological target: NaV 1.7 channel (Homo sapiens, UniProt Q15858); assay: Activity against NaV 1.7 channel (optical membrane potential assay); assay type: cell-based
Description: as §1, §2, §3, §4, §5, §6, §7, §8, §9

[4] = biological target: NaV1.2 (Homo sapiens, UniProt Q99250); settings: read-out: TTX IC50; cited from earlier work
[5] = biological target: NaV1.1 (Homo sapiens, UniProt P35498); settings: read-out: TTX IC50; cited from earlier work
[6] = biological target: NaV1.9 (Homo sapiens, UniProt Q9UI33); settings: read-out: TTX IC50; cited from earlier work
[7] = biological target: T1, NaV1.3; settings: read-out: TTX IC50; cited from earlier work
Target sequence in this assay (Q9NY46 whole entry, looked up): as the sequence (Q9NY46 whole entry) above

[8] = biological target: NaV1.6 (Homo sapiens, UniProt Q9UQD0); settings: read-out: TTX IC50; cited from earlier work

Chain of NaV1.8 (Q9Y5Y9 whole entry): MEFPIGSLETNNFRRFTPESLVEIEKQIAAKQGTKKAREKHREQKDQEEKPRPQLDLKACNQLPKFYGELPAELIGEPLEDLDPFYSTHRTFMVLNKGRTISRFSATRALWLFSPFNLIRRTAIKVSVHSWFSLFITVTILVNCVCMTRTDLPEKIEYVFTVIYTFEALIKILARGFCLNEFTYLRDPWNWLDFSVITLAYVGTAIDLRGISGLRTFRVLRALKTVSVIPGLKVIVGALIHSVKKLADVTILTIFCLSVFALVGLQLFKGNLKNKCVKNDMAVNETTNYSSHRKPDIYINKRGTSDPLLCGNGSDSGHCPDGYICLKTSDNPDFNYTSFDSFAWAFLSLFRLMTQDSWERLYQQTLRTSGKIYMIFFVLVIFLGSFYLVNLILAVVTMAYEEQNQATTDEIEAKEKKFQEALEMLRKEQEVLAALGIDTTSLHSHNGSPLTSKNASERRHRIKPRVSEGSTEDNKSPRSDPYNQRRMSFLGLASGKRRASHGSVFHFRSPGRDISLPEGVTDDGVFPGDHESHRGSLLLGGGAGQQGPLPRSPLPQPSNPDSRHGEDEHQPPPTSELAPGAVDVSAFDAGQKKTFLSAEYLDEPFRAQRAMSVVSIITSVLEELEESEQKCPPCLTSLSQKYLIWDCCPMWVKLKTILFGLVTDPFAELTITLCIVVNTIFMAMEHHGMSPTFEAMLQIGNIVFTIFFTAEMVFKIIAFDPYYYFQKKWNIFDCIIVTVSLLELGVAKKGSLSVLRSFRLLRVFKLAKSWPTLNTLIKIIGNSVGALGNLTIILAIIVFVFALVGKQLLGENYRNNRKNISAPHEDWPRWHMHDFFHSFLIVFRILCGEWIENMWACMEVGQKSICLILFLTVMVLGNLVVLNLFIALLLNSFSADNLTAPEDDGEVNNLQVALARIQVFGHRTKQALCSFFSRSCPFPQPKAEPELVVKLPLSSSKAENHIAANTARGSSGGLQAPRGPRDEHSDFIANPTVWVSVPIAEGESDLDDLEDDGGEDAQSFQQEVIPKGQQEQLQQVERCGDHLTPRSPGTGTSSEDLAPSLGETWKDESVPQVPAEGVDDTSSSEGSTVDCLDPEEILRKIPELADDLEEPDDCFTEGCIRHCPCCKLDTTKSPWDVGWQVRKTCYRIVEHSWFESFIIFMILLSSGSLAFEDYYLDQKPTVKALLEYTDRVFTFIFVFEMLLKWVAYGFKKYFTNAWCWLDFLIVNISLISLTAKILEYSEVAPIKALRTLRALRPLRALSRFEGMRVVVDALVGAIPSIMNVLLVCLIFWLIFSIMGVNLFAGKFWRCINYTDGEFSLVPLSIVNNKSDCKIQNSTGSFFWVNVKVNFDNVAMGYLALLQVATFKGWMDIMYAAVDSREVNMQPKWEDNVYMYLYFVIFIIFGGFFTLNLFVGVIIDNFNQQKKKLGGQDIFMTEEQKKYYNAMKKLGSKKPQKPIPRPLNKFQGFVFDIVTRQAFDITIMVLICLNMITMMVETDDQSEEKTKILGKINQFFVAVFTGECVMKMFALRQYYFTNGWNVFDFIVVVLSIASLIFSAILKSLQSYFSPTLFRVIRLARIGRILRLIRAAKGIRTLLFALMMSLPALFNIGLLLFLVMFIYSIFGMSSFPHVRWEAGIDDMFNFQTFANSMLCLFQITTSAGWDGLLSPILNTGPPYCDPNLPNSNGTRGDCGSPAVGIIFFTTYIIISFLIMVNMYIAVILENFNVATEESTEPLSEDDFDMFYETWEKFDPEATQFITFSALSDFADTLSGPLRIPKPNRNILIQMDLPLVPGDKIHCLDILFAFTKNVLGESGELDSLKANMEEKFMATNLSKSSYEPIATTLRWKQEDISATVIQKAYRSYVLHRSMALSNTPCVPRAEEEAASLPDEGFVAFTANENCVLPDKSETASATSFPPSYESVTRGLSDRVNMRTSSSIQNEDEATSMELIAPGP

Structure (SMILES) | IC50 [1] [µM] | IC50 [2] [µM] | IC50 [3] [µM] | also measured
CC(C)(C)c1ccc(C(=O)Nc2cccc(S(C)(=O)=O)c2)c(Oc2ncccc2C#N)c1 [Compound 14] | < 2 | 2 to 10 | < 2 | –
CC(C)(C)c1ccc(C(=O)Nc2cccc(S(C)(=O)=O)c2)c(Oc2ncccc2C(F)(F)F)c1 [Compound 18] | < 2 | 10 to 20 | 2 to 10 | –
CC(C)(C)c1ccc(C(=O)Nc2cccc(C(N)=O)c2)c(Oc2ccc(C(F)(F)F)nc2)c1 [Compound 7] | < 2 | 10 to 20 | 2 to 10 | –
NC(=O)c1cccc(NC(=O)c2ccccc2Oc2ccc(F)cc2)c1 [Compound 3, N-(3-carbamoylphenyl)-2-(4-fluorophenoxy)benzamide] | < 2 | 10 to 20 | – | –
CNC(=O)c1cccc(NC(=O)c2ccc(C(C)(C)C)cc2Oc2ccc(F)cc2Cl)c1 [Compound 11] | < 2 | 2 to 10 | 2 to 10 | –
CC(C)(C)c1ccc(C(=O)Nc2cccc(C(N)=O)c2)c(Oc2ccc(F)cc2Cl)c1 [Compound 8] | < 2 | 10 to 20 | 2 to 10 | –
NC(=O)c1cccc(NC(=O)c2ccccc2Cc2ccccc2)c1 [Compound 1] | – | > 20 | – | –
CC(C)(C)c1ccc(C(=O)Nc2cccc(S(C)(=O)=O)c2)c(Oc2ccc(F)cc2Cl)c1 [Compound 9] | < 2 | 10 to 20 | 2 to 10 | –
CC(C)(C)c1ccc(C(=O)Nc2cccc(S(C)(=O)=O)c2)c(Oc2cccnc2C(F)(F)F)c1 [Compound 16] | < 2 | 10 to 20 | 2 to 10 | –
CC(C)(C)c1ccc(C(=O)Nc2cccc(S(C)(=O)=O)c2)c(Oc2cnccc2C(F)(F)F)c1 [Compound 15] | < 2 | 2 to 10 | 2 to 10 | –
NC(=O)c1cccc(NC(=O)c2ccccc2Oc2ccc(C(F)(F)F)cc2)c1 [Compound 5] | – | 10 to 20 | – | –
Cc1ncccc1Oc1cc(C(C)(C)C)ccc1C(=O)Nc1cccc(S(C)(=O)=O)c1 [Compound 12] | < 2 | > 20 | 2 to 10 | –
CC(C)(C)c1ccc(C(=O)Nc2cccc(NS(C)(=O)=O)c2)c(Oc2ccc(F)cc2Cl)c1 [Compound 10] | 2 to 10 | 10 to 20 | 2 to 10 | –
Cc1ncccc1Oc1cc(C(C)(C)C)ccc1C(=O)Nc1cccc(C(N)=O)c1 [Compound 6] | < 2 | > 20 | > 20 | –
CN(C(=O)c1ccc(C(C)(C)C)cc1Oc1ccc(F)cc1Cl)c1cccc(S(C)(=O)=O)c1 [Compound 19, 4-tert-Butyl-2-(2-chloro-4-fluorophenoxy)-N-methyl-N-(3-(methylsulfonyl)phenyl)benzamide] | 2 to 10 | 2 to 10 | 2 to 10 | –
CC(C)(C)c1ccc(C(=O)Nc2cccc(S(C)(=O)=O)c2)c(Oc2cccc(C(F)(F)F)n2)c1 [Compound 17] | < 2 | 10 to 20 | 10 to 20 | –
NC1=N[C@H](O)[C@H]2[C@H]3O[C@]4(O)O[C@@H]([C@@H](O)[C@@]2(N1)[C@@H]4O)[C@]3(O)CO [TTX, tetrodotoxin] | – | – | – | IC50 [4]: 0.01 µM; IC50 [5]: 0.01 µM; IC50 [6]: 1 µM; IC50 [7]: 0.015 µM; IC50 [8]: 0.006 µM
NC(=O)c1cccc(NC(=O)c2ccccc2Oc2ccc(Br)cc2)c1 [Compound 4] | < 2 | 2 to 10 | – | –
NC(=O)c1cccc(NC(=O)c2ccccc2Nc2cccc(F)c2)c1 [Compound 2] | – | > 20 | – | –
